Assays:
Assay in all cases: Cell proliferation Ex.3
Type in all cases: cell-based
[1] = system: T24; conditions: Homo sapiens, T-24
Protocol: (§1) A dose response relationship on cell proliferation was assessed for Compound 13 on 140 tumor cell lines. […] Cells were cultured in the appropriate media. For the assays, cells were seeded in white cell culture-treated flat and clear bottom multiwell plates and incubated at 37° C. overnight before compound was added. […] on the medium, cell plates were equilibrated to room temperature for one hour, CellTiterGlo reagent (Promega) was added and luminescence was measured approximately an hour later using a luminometer. Raw data were converted into percent cell viability relative to the high and low control, which were set to 10000 and 000, respectively.

[2] = system: CACO2; conditions: Homo sapiens, Caco-2
Protocol: as §1

[3] = system: SKMEL28; conditions: Homo sapiens, SK-MEL-28
Protocol: as §1

[4] = system: EJ28; conditions: Homo sapiens, EJ-28
Protocol: as §1

[5] = system: ASPC1; conditions: Homo sapiens
Protocol: as §1

[6] = system: K-562; conditions: Homo sapiens, K562
Protocol: as §1

[7] = system: RDES; conditions: RD-ES
Protocol: as §1

[8] = system: SKOV3; conditions: Homo sapiens, SK-OV-3
Protocol: as §1

[9] = system: HeLa; conditions: Homo sapiens
Protocol: as §1

[10] = system: PC3; conditions: Homo sapiens, PC-3
Protocol: as §1

[11] = system: IGROV1; conditions: Homo sapiens, IGROV-1
Protocol: as §1

[12] = system: OVCAR3; conditions: Homo sapiens, OVCAR-3
Protocol: as §1

[13] = system: SF295; conditions: Homo sapiens, SF-295
Protocol: as §1

[14] = system: SKNAS; conditions: Homo sapiens, SK-N-AS
Protocol: as §1

[15] = system: LOVO; conditions: Homo sapiens
Protocol: as §1

[16] = system: MV4-11; conditions: Homo sapiens
Protocol: as §1

[17] = system: SF268; conditions: Homo sapiens, SF-268
Protocol: as §1

[18] = system: A375; conditions: Homo sapiens, A-375
Protocol: as §1

[19] = system: NCIH358M; conditions: NCI-H358M
Protocol: as §1

[20] = system: 22RV1; conditions: Homo sapiens
Protocol: as §1

[21] = system: UO31; conditions: Homo sapiens, UO-31
Protocol: as §1

[22] = system: SAOS2; conditions: Homo sapiens, SAOS-2
Protocol: as §1

[23] = system: MDAMB231; conditions: Homo sapiens, MDA-MB-231
Protocol: as §1

[24] = system: SKHEP1; conditions: Homo sapiens, SK-HEP1
Protocol: as §1

[25] = system: A431; conditions: Homo sapiens, A-431
Protocol: as §1

[26] = system: NCI-H292; conditions: Homo sapiens
Protocol: as §1

- IC50 ([1]; T24, 72 h): > 10 µM
- IC50 ([1]; T24, 120 h): > 10 µM
- IC50 ([1]; T24, 168 h): > 10 µM
- IC50 ([2]; CACO2, 72 h): > 10 µM
- IC50 ([2]; CACO2, 120 h): > 10 µM
- IC50 ([2]; CACO2, 168 h): > 10 µM
- IC50 ([3]; SKMEL28, 72 h): > 10 µM
- IC50 ([3]; SKMEL28, 120 h): > 10 µM
- IC50 ([3]; SKMEL28, 168 h): > 10 µM
- IC50 ([5]; ASPC1, 72 h): > 10 µM
- IC50 ([5]; ASPC1, 120 h): 0.72 µM
- IC50 ([5]; ASPC1, 168 h): 0.49 µM
- IC50 ([6]; K-562, 72 h): > 10 µM
- IC50 ([6]; K-562, 120 h): > 10 µM
- IC50 ([6]; K-562, 168 h): > 10 µM
- IC50 ([8]; SKOV3, 72 h): > 10 µM
- IC50 ([8]; SKOV3, 120 h): > 10 µM
- IC50 ([8]; SKOV3, 168 h): > 10 µM
- IC50 ([9]; 72 h): > 10 µM
- IC50 ([9]; 120 h): > 10 µM
- IC50 ([9]; 168 h): > 10 µM
- IC50 ([10]; PC3, 72 h): > 10 µM
- IC50 ([10]; PC3, 120 h): > 10 µM
- IC50 ([10]; PC3, 168 h): > 10 µM
- IC50 ([12]; OVCAR3, 72 h): > 10 µM
- IC50 ([12]; OVCAR3, 120 h): > 10 µM
- IC50 ([12]; OVCAR3, 168 h): > 10 µM
- IC50 ([14]; 72 h): > 10 µM
- IC50 ([14]; 120 h): > 10 µM
- IC50 ([14]; 168 h): > 10 µM
- IC50 ([15]; 72 h): > 10 µM
- IC50 ([15]; 120 h): 3.28 µM
- IC50 ([15]; 168 h): 2.06 µM
- IC50 ([16]; MV4-11, 72 h): 2.48 µM
- IC50 ([16]; MV4-11, 120 h): 0.251 µM
- IC50 ([16]; MV4-11, 168 h): 1.72 µM
- IC50 ([18]; A375, 72 h): > 10 µM
- IC50 ([18]; A375, 120 h): > 10 µM
- IC50 ([18]; A375, 168 h): > 10 µM
- IC50 ([20]; 22Rv1, 72 h): 3.8 µM
- IC50 ([20]; 22Rv1, 120 h): 3.28 µM
- IC50 ([20]; 22Rv1, 168 h): 3.69 µM
- IC50 ([23]; MDAMB231, 72 h): > 10 µM
- IC50 ([23]; MDAMB231, 120 h): > 10 µM
- IC50 ([23]; MDAMB231, 168 h): > 10 µM
- IC50 ([24]; SKHEP1, 72 h): > 10 µM
- IC50 ([24]; SKHEP1, 120 h): > 10 µM
- IC50 ([24]; SKHEP1, 168 h): > 10 µM
- IC50 ([25]; A431, 72 h): > 10 µM
- IC50 ([25]; A431, 120 h): 3.18 µM
- IC50 ([25]; A431, 168 h): 1.42 µM
- IC50 ([26]; NCI-H292, 72 h): > 10 µM
- IC50 ([26]; NCI-H292, 120 h): > 10 µM
- IC50 ([26]; NCI-H292, 168 h): > 10 µM
SMILES: C#C[C@]1(CO)O[C@@H](n2cc(F)c(N)nc2=O)C[C@@H]1O [compound 9]
- IC50 ([4]; EJ28, 72 h): > 10 µM
- IC50 ([4]; EJ28, 120 h): > 10 µM
- IC50 ([4]; EJ28, 168 h): > 10 µM
- IC50 ([7]; 72 h): > 10 µM
- IC50 ([7]; 120 h): > 10 µM
- IC50 ([7]; 168 h): > 10 µM
- IC50 ([11]; IGROV1, 72 h): > 10 µM
- IC50 ([11]; IGROV1, 120 h): > 10 µM
- IC50 ([11]; IGROV1, 168 h): > 10 µM
- IC50 ([13]; SF295, 72 h): > 10 µM
- IC50 ([13]; SF295, 120 h): > 10 µM
- IC50 ([13]; SF295, 168 h): > 10 µM
- IC50 ([17]; SF268, 72 h): > 10 µM
- IC50 ([17]; SF268, 120 h): > 10 µM
- IC50 ([17]; SF268, 168 h): > 10 µM
- IC50 ([19]; 72 h): > 10 µM
- IC50 ([19]; 120 h): > 10 µM
- IC50 ([19]; 168 h): 0.67 µM
- IC50 ([21]; UO31, 72 h): > 10 µM
- IC50 ([21]; UO31, 120 h): > 10 µM
- IC50 ([21]; UO31, 168 h): > 10 µM
- IC50 ([22]; SAOS2, 72 h): > 10 µM
- IC50 ([22]; SAOS2, 120 h): > 10 µM
- IC50 ([22]; SAOS2, 168 h): > 10 µM
